Experimental data as given in US20060252708A1, “Compositions of flavones and long chain fatty acid derivatives isolated from plants and methods related thereto for the control of prostate disorders” (priority 2005, published 2006).

What was measured:
Type in all cases: cell-based
[1] = system: secreting PSA from LNCaP cells; assay: ELISA of PSA secreted from LNCaP cells (inhibition of PSA secretion); conditions: for Rate of inhibition (%): Table 2, PSA secretion; for inhibition at 1 µg/mL: concentration 1 ug/ml; for inhibition at 3 µg/mL: concentration 3 ug/ml; for inhibition at 6.25 µg/mL: concentration 6.25 ug/ml
Method: For example, in cultured androgen-dependent prostate cancer cells as shown in An enzyme-linked immunoadsorbent assay was adopted to determine the level of secreting PSA from LNCaP cells, an androgen-dependent prostate epithelia cancer cells, by the above-mentioned flavones. At first, 100 μl polyclonal Ab at 4 μg/m was added to coat the microplate. They were placed for 12 hours at 4° C., and then washed by PBST and sealed the plate with PBST for 1 hour at 37° C. Supernatants from flavones or mock-treated cells were added into the plate to incubate at water bathed for 2 hours at 37° C. After washing, primary Ab at 200 ng/ml was added and incubated for 1 hour at 37° C. After washing, secondary Ab at 1:8000 was then added and incubated for 1 hour at room temperature. After washing, color reaction substrate was added and incubated for 10 min at dark, then added 2 N sulfuric acid to measure absorption at 492 nm.

androgen receptor (AR) = target: T1, androgen receptor (AR) (Homo sapiens, UniProt P10275); assay: Androgen receptor activation, luciferase reporter gene system in U2OS cells; conditions: 10 nM andrusol, 24 hr incubation, FIG. 1 and FIG. 4
T1 construct: The full length AR cDNA was cloned from human's adipose tissue using PCR; expressed in transfected cells; host or cells: U2OS cells
T1 sequence (P10275 1-920): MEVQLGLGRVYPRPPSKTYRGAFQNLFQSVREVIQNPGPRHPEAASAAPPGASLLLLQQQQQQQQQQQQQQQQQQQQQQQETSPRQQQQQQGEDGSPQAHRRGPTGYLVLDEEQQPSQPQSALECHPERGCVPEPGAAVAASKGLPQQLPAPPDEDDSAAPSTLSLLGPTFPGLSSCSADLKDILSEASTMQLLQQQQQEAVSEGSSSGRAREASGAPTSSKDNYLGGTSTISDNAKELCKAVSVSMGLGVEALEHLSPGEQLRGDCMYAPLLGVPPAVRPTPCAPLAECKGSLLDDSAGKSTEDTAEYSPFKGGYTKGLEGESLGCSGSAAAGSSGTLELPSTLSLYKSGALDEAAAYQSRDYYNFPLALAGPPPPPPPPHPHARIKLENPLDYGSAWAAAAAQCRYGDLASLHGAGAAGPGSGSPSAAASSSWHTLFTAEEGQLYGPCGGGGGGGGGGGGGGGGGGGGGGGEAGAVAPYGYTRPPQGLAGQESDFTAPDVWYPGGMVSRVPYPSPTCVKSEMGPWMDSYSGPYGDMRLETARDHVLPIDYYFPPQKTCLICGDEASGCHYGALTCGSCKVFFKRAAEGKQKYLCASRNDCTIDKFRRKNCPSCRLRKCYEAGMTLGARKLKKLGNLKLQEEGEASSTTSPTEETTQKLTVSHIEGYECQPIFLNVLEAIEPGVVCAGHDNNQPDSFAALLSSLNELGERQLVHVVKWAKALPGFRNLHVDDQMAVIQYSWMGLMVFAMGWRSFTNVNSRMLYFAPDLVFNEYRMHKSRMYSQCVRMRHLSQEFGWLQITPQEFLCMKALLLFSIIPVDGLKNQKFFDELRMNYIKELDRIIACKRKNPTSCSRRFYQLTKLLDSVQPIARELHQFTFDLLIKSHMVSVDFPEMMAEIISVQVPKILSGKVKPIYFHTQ
Method: The activation of AR was performed using a luciferase reporting gene system. The full length AR cDNA was cloned from human's adipose tissue using PCR. The primer sequence 1 used was 5′-[…]-3′ (SEQ ID NO:1); the primer sequence 2 used was 5′-[…]-3′ (SEQ ID NO:2). The amplified PCR products were inserted into an expression vector, and then sequenced. The reporter genes were constructed using luciferase detected carrier pGL3-Promoter manufactured by Promega Ltd. Three copies of AR response element were inserted into upstream of pGL3-promoter (element sequence 3 used was 5′-[…] -3′) (SEQ ID NO:3). The co-transfection experiments were conducted in 96-well plates using U2OS cells. 24 hours after transfection, 10 nM andrusol, DMSO (0.1%), and testing compounds were added into cell culture for further 24 hr incubation.

[2] = target: T2, estrogen receptor-α (ERα) (Homo sapiens, UniProt P03372); assay: Estrogen receptor-α activation, luciferase reporter gene system in U2OS cells; conditions: 10 nM estradiol, 24 hr incubation, FIG. 2
T2 construct: The full length ER-α and ER-β cDNA were separately cloned from human adipose tissue using PCR method; expressed in transfected cells; host or cells: U2OS cells
T2 sequence (P03372 1-595): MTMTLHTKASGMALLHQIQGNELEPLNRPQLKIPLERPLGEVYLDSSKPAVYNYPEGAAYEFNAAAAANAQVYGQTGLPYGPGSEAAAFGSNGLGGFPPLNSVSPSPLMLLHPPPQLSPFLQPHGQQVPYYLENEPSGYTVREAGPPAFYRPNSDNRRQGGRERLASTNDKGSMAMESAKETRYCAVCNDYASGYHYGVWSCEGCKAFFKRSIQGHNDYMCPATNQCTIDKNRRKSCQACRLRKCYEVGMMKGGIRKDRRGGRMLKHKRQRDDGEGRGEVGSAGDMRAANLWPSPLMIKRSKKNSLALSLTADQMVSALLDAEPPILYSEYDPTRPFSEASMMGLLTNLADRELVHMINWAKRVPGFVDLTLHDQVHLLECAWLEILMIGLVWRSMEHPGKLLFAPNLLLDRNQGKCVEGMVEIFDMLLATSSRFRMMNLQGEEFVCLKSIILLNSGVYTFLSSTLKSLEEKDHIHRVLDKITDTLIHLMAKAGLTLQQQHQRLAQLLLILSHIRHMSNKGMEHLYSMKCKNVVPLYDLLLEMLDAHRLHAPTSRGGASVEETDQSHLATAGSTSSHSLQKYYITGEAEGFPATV
Method: (§1) The activation evaluation of the ERs were performed using a luciferase reporter gene system. The full length ER-α and ER-β cDNA were separately cloned from human adipose tissue using PCR method. The primer sequence 4 (ERα) used was 5′-[…]-3′ (SEQ ID NO:4); the primer sequence 5 (ERα) used was 5′-[…]-3′(SEQ ID NO:5); the primer sequence 6 (ERβ) used was 5′-[…]-3′ (SEQ ID NO:6); the primer sequence 7 (ERβ) used was 5′-[…]-3′(SEQ ID NO:7). The amplified PCR products were inserted into expression vector and confirmed by sequencing. The report genes were constructed by using luciferase detected carrier pGL3-Promoter from Promega Ltd. Three copies of ER response element were inserted into the upstream of pGL3-Promoter (sequence 8 used was 5′-[…] -3′ (SEQ ID NO:8)). The co-transfection experiments were conducted in 96-well plates using U2OS cells. 24 hours after transfection, 10 nM estradiol, DMSO (0.1%), and testing compounds were added into cell culture for further 24 hr incubation.

[3] = target: T3, estrogen receptor-β (ERβ) (Homo sapiens, UniProt Q92731); assay: Estrogen receptor-β activation, luciferase reporter gene system in U2OS cells; conditions: 10 nM estradiol, 24 hr incubation, FIG. 3
T3 construct: The full length ER-α and ER-β cDNA were separately cloned from human adipose tissue using PCR method; expressed in transfected cells; host or cells: U2OS cells
Method: as §1

[4] = Homo sapiens, PSA secretion, read-out: Rate of inhibition (%)
[5] = Homo sapiens, PSA secretion, concentration 12.5 ug/ml, read-out: Rate of inhibition (%)
[6] = Homo sapiens, PSA secretion, concentration 25 ug/ml, read-out: Rate of inhibition (%)
[7] = Homo sapiens, PSA secretion, concentration 50 ug/ml, read-out: Rate of inhibition (%)

T3 sequence (Q92731 whole entry): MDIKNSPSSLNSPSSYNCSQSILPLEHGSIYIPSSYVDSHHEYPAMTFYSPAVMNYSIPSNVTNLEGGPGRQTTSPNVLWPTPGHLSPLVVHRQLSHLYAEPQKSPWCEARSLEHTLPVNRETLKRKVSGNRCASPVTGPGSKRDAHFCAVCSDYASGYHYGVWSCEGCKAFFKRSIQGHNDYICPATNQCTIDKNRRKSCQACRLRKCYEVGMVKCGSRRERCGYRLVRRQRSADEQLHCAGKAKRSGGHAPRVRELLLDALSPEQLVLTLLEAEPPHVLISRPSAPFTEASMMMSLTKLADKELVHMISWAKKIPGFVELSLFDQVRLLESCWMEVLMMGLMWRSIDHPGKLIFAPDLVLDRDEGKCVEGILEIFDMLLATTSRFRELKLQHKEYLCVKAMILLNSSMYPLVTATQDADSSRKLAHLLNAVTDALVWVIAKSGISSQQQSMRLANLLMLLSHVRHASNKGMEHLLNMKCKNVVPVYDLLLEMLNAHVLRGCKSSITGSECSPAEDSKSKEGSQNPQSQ

## CCC=CCC=CCC=CCCCCCCCC(=O)NCCO [Long chain amide, N-(2-ethoxyl)-9,12,15-linolenamide]
[1]; concentration 5 ug/ml
  Rate of inhibition (%): 9.7%
[1]; concentration 12.5 ug/ml
  Rate of inhibition (%): 31%
[1]; concentration 20 ug/ml
  Rate of inhibition (%): 52%
[1]; concentration 25 ug/ml
  Rate of inhibition (%): 63%
[1]; concentration 50 ug/ml
  Rate of inhibition (%): 71%
Androgen receptor (AR)
  Inhibition of androgen receptor (AR) activation: Inhibition of androgen receptor (AR) activation

## CCC=CCC=CCC=CCCCCCCCC(=O)OC[C@@]1(O)O[C@H](CO)[C@@H](O)[C@@H]1O [Octadecatrienoic acid fructoside, 9,12,15-octadecatrienoic acid 1-O-β-D-fructoside]
[1]; concentration 5 ug/ml
  Rate of inhibition (%): 23%
[1]; concentration 10 ug/ml
  Rate of inhibition (%): 40%
[1]; concentration 12.5 ug/ml
  Rate of inhibition (%): 57%
[1]; concentration 25 ug/ml
  Rate of inhibition (%): 76%
Androgen receptor (AR)
  Inhibition of androgen receptor (AR) activation: Inhibition of androgen receptor (AR) activation

## O=c1c(O)c(-c2ccc(O)cc2)oc2cc(O)cc(O)c12 [kaempferol]
[1]; [4]
  inhibition at 1 µg/mL: 53%
  inhibition at 3 µg/mL: 60%
  inhibition at 6.25 µg/mL: 69%
[1]; [5]
  inhibition at 12.5 µg/mL: 65%
[1]; [6]
  inhibition at 25 µg/mL: 66%
[1]; [7]
  inhibition at 50 µg/mL: 89%

## O=c1cc(-c2ccc(O)c(O)c2)oc2cc(O)cc(O)c12 [luteolin]
[1]; [4]
  inhibition at 1 µg/mL: 37%
  inhibition at 3 µg/mL: 48%
[1]; Homo sapiens, PSA secretion, concentration 10 ug/ml, read-out: Rate of inhibition (%)
  inhibition at 10 µg/mL: 57%
[1]; Homo sapiens, PSA secretion, concentration 20 ug/ml, read-out: Rate of inhibition (%)
  inhibition at 20 µg/mL: 67%
[1]; Homo sapiens, PSA secretion, concentration 40 ug/ml, read-out: Rate of inhibition (%)
  inhibition at 40 µg/mL: 100%
Androgen receptor (AR)
  Inhibition of androgen receptor (AR) activation: Inhibition of androgen receptor (AR) activation
[2]
  Effect on estrogen receptor-α (ERα) activation: Inhibition
[3]
  Effect on estrogen receptor-β (ERβ) activation: Inhibition

## O=C1C[C@@H](c2ccc(O)cc2)Oc2cc(O)cc(O)c21 [naringenin]
[1]; [4]
  inhibition at 6.25 µg/mL: 78%
[1]; [5]
  inhibition at 12.5 µg/mL: 84%
[1]; [6]
  inhibition at 25 µg/mL: 87%
[1]; [7]
  inhibition at 50 µg/mL: 88%
Androgen receptor (AR)
  Inhibition of androgen receptor (AR) activation: Inhibition of androgen receptor (AR) activation
[2]
  Effect on estrogen receptor-α (ERα) activation: Inhibition
[3]
  Effect on estrogen receptor-β (ERβ) activation: Inhibition

## hexadecanoic 1-O-β-D-fructoside [Hexadecanoic fructoside]
[1]; concentration 5 ug/ml
  Rate of inhibition (%): 4.5%
[1]; concentration 12.5 ug/ml
  Rate of inhibition (%): 8.4%
[1]; concentration 25 ug/ml
  Rate of inhibition (%): 26%
[1]; concentration 50 ug/ml
  Rate of inhibition (%): 42%
[1]; concentration 100 ug/ml
  Rate of inhibition (%): 76%
Androgen receptor (AR)
  Inhibition of androgen receptor (AR) activation: Inhibition of androgen receptor (AR) activation
